# Source: publication PMC11385697, “Bibacillin 1: a two-component lantibiotic from Bacillus thuringiensis” (RSC Chemical Biology, 2024)
# Legend:
# M. luteus ATCC 4698 [1] = test: Membrane depolarization assay, DiSC3(5); conditions: DiSC3(5) fluorescence; M. luteus OD600 = 0.2; 30 min; peptides individually
# Experimental: (B) DiSC3(5) fluorescence signal after incubation of M. luteus (OD600 = 0.2) with Bib1α or Bib1β individually or as a 1 : 1 mixture for 30 min. […] In all cases, a total peptide concentration of 5 μM was used.
# The mixture was transferred to a 96-well black plate and the fluorescence of DiSC3(5) was measured using an excitation wavelength of 622 nm and an emission wavelength of 670 nm throughout the experiment. The fluorescence signal was measured for 8 min prior to the addition of peptides. After adding peptides, the fluorescence signal was monitored for 30 min. The maximum fluorescence signal achieved over the entire course of the experiment was considered to be a metric of membrane depolarization activity and was plotted as a function of peptide concentration.
# rabbit erythrocytes [2] = test: Agar diffusion hemolysis assay; format: cell-based; conditions: 300 pmol peptide spotted (3 μL of 100 μM in PBS); 5% (v/v) rabbit erythrocytes in 0.7% BHI agar; 37 °C, 16 h; mixtures 1 : 1
# Experimental: Cytolysin was used as a positive control.
# Defibrinated rabbit erythrocytes (Hemostat) were washed by 5-fold dilution in cold sterile PBS, followed by centrifugation at 1000g for 10 min and decanting. This process was repeated until the supernatant was clear. The washed erythrocytes were diluted to a concentration of 5% (v/v) in molten BHI containing 0.7% agar cooled to 50 °C and the mixture was immediately deposited onto a warm 2% BHI agar plate. After setting at room temperature for at least 30 min, 3 μL of peptide solution diluted in PBS to a concentration of 100 μM was deposited onto the agar plate and the plate was allowed to stand for another 30 min. The plate was then incubated at 37 °C for 16 h before documentation.
# [3] = tested on: T1, lipid II consumption by E. coli PBP1b; test: In vitro peptidoglycan synthesis assay with lipid II substrate (TLC); format: biochemical; conditions: 4 equivalents of peptide relative to lipid II; 30 °C, 2 h; thin layer chromatography; mixture 1 : 1
# T1 construct: made in house
# Experimental: A solution of lipid II (1.5 nmol) in 1 : 1 CHCl3 : MeOH that was prepared by a previously disclosed procedure[87] was added to a low binding Eppendorf tube and concentrated to remove any organic solvent. Triton X-100 (1% v/v, 2 μL) was added to the residue and the mixture was sonicated briefly before diluting with 37.5 μL of reaction buffer (20 mM MES, 2 mM MgCl2, 2 mM CaCl2, pH = 5.5). The solution was then transferred to a new low binding Eppendorf tube containing lanthipeptide. The mixture was vortexed and briefly sonicated to ensure dissolution. The mixtures were incubated for 10 min at room temperature before adding PBP1b (6 μg), which was prepared as described elsewhere,[77] and then incubated at 30 °C. After 2 h, 150 μL nBuOH : AcOH-pyridine (2 : 1) was added to the reaction mixture and the organic layer was removed, washed with 40 μL of water and then concentrated. The residue was dissolved in 12 μL of 1 : 1 MeOH : CHCl3 and 3 μL was deposited onto a silica gel plate. The TLC plate was developed in mobile phase (88 : 48 : 10 : 1 CHCl3 : MeOH : H2O : NH4OH) for 10 min before drying and staining the plate with cerium ammonium sulfate. The plate was documented immediately after the staining procedure was completed.
# M. luteus ATCC 4698 [4] = test: Time-kill assay; format: cell-based, Micrococcus luteus; conditions: total peptide 20 μM, 30 °C; for killing activity in time-kill assay: mixture 1 : 1
# Experimental: The solutions were incubated at 30 °C with shaking. At each time point, 20 μL was removed from each culture and immediately streaked onto tryptic soy broth agar plates. The plates were incubated at 30 °C for 36–48 h and colonies were counted.
# [5] = In vitro pore formation assay, pyranine-encapsulated liposomes; conditions: total peptide 5 μM; for pore formation activity in liposomes: pH-dependent pyranine fluorescence, DOPC liposomes
# Experimental: To investigate the lipid II-dependence of the pore formation activity of bibacillin 1, pyranine-encapsulated liposomes were prepared containing or lacking lipid II and pore formation was monitored via pH-dependent pyranine fluorescence.[79]
# This assay was conducted as described elsewhere.[79]
# [6] = SDS-PAGE analysis of oligomerization; format: physicochemical; conditions: in the presence of SDS
# Experimental: To determine whether bibacillin 1 could quorum sense through an aggregation mechanism, the aggregation propensity of bibacillin 1 was analyzed using SDS-PAGE and dynamic light scattering (DLS). […] Since SDS can influence aggregation, the aggregation of bibacillin 1 was further investigated under SDS-free conditions using DLS (Fig. 6B). Bib1α exists in solution as aggregates that are 159 nm in diameter on average (PDI = 0.224) and Bib1β forms aggregates that are 291 nm in diameter on average (PDI = 0.384). […] Confirmation of this hypothesis will require in vitro studies with Bib1R1/R2.
# rabbit erythrocytes [7] = format: cell-based; conditions: total peptide concentration 2 μM; 1 h at 37 °C; mixture 1 : 1
# Experimental: Solution phase hemolysis assays were conducted as described previously.[36]
# Fig. S2. […] A) Hemoglobin release […]
# erythrocytes were treated with 0.03% v/v triton X-100. Negative control contained only buffer. A total peptide concentration of 2 µM was used in each case. B) Extent of hemolysis after treating freshly washed rabbit erythrocytes with 1:1 of CylLS”:CylLL” at 37 ̊C for 1 h. Data was fit to a […]
# (1 picture or pasted object on this page, not shown here)
# [8] = Dynamic light scattering of aggregates; format: physicochemical; conditions: phosphate buffered saline pH = 7.4, room temperature, total peptide 1 μM; for average diameter of aggregates (DLS): SDS-free
# Experimental: Fig. 6 Exploring the quorum sensing mechanism of bibacillin 1. (A) Assays to assess whether bibacillin 1 triggers the CylR1/R2 system. A reporter strain of E. faecalis with LacZ expression under the control of the CylR1/R2 system was seeded into soft agar containing X-gal. Next, 300 pmol of Bib1α, Bib1β, and Bib1βDha either separately or as 1 : 1 mixtures were deposited onto the soft agar layer. Nisin (300 pmol) and CylLS′′ (30 pmol) were used as negative and positive controls, respectively. (B) Size distributions obtained using dynamic light scattering showing the oligomeric states of Bib1α, Bib1β, and Bib1α : Bib1β (1 : 1) in phosphate buffered saline (pH = 7.4) at room temperature. In each case, the total peptide concentration was 1 μM.
# Enzyme mixtures used for molecular biology were purchased from New England BioLabs (NEB) (Ipswich, MA). Chemicals were purchased from Sigma-Aldrich (St. Louis, MO). Growth media were purchased from Becton, Dickinson and Company (Franklin Lake, NJ) or Fisher Scientific (Pittsburgh, PA). Single stranded DNA used as primers for PCR were purchased from Integrated DNA Technologies (Newark, NJ). Gene fragments were purchased from Twist Bioscience (San Francisco, CA). The sequences of primers and gene fragments can be found in Tables S2 and S3 (ESI ^†), respectively. Whole plasmid sequencing was performed by Plasmidsaurus using Oxford Nanopore Technology with custom analysis and annotation. Matrix-assisted laser desorption/ionization time-of-flight mass spectrometry (MALDI-TOF MS) analysis was performed on a Bruker UltrafleXtreme MALDI-TOF mass spectrometer (Bruker Daltonics) at the University of Illinois School of Chemical Sciences Mass Spectrometry. All samples analyzed by MALDI-TOF MS were co-crystallized with Super DHB MALDI matrix purchased from Sigma-Aldrich. Semi-preparative reversed phase HPLC (R-HPLC) was performed on an Agilent 1260 infinity II LC system. Fluorescence emission intensities and optical densities were determined using a Biotek Synergy H4. Dynamic light scattering (DLS) analysis was performed on a Zetasizer Nanoseries (Malvern Panalytical,). CylLS′′ and CylLL′′ were prepared using a previously described procedure.[36] Nisin was isolated from commercially available crude extracts of Lactococcus lactis (Sigma Aldrich).
SMILES,"membrane depolarization activity, all concentrations tested (M. luteus ATCC 4698 [1])",hemolytic activity on an agar plate (rabbit erythrocytes [2]),protection of lipid II from consumption by PBP1b [3],time after which cells began to recover from treatment (M. luteus ATCC 4698 [4]) [h],killing activity in time-kill assay (M. luteus ATCC 4698 [4]; about 10^6 CFU per mL),lipid II dependence of pore formation activity ([5]; DOPC liposomes containing or lacking 0.1 mol% lipid II),pore formation activity in liposomes [5],oligomerization by SDS-PAGE [6],"hemolysis in solution (hemoglobin release, absorbance at 415 nm) (rabbit erythrocytes [7])",PDI of aggregates (DLS) [8],average diameter of aggregates (DLS) [8] [nm],time after treatment at which minimal cell counts were reached (M. luteus ATCC 4698 [4]; about 10^6 CFU per mL) [h],size distribution of aggregates (DLS) [8]
C=C(NC(=O)[C@H](C)NC(=O)[C@@H]1CS[C@H](C)[C@H](N)C(=O)NC(=C)C(=O)N2CCC[C@H]2C(=O)N[C@@H](C)C(=O)N1)C(=O)N[C@@H](C)C(=O)N[C@@H](CCSC)C(=O)N[C@@H](CC(C)C)C(=O)N[C@@H](Cc1ccc(O)cc1)C(=O)N[C@@H](CC(C)C)C(=O)N[C@@H](CCC(N)=O)C(=O)NCC(=O)N[C@H](C(=O)NC(=CC)C(=O)N[C@H](C(=O)NC(=C)C(=O)N[C@@H](CC(C)C)C(=O)NCC(=O)N[C@@H](CC(C)C)C(=O)N[C@@H]1CSC[C@@H](C(=O)O)NC(=O)[C@H](Cc2c[nH]cn2)NC(=O)[C@H](CCSC)NC(=O)[C@H](CCCNC(=N)N)NC1=O)C(C)C)C(C)C [Bib1α],did not show strong membrane depolarization activity,showed hemolytic activity,incapable of protecting lipid II,4,bactericidal,somewhat enhanced by the addition of lipid II,showed pore formation activity,oligomeric in the presence of SDS,did not induce hemolysis,0.224,159,–,–
C=C(NC(=O)[C@H](Cc1ccccc1)NC(=O)CNC(=O)[C@H](CC(C)C)NC(=O)[C@H](C)NC(=O)[C@H](CC(C)C)NC(=O)CNC(=O)CNC(=O)CNC(=O)[C@@H](NC(=O)[C@H](C)NC(=O)[C@@H]1CS[C@H](C)[C@H](N)C(=O)NC(=CC)C(=O)N2CCC[C@H]2C(=O)N[C@@H](C(C)C)C(=O)N1)[C@@H](C)CC)C(=O)N[C@H](C(=O)N[C@@H]1CSC[C@@H](C(=O)O)NC(=O)[C@H](Cc2ccc(O)cc2)NC(=O)[C@H]([C@@H](C)CC)NC(=O)[C@H](CCCCN)NC1=O)[C@@H](C)CC [Bib1βDha],–,did not show any hemolytic activity beyond that of a negative control,–,–,–,–,–,–,–,–,–,–,–
CC=C1NC(=O)[C@@H](N)[C@@H](C)SC[C@@H](C(=O)N[C@@H](C)C(=O)N[C@H](C(=O)NCC(=O)NCC(=O)NCC(=O)N[C@@H](CC(C)C)C(=O)N[C@@H](C)C(=O)N[C@@H](CC(C)C)C(=O)NCC(=O)N[C@@H](Cc2ccccc2)C(=O)N[C@@H](CO)C(=O)N[C@H](C(=O)N[C@@H]2CSC[C@@H](C(=O)O)NC(=O)[C@H](Cc3ccc(O)cc3)NC(=O)[C@H]([C@@H](C)CC)NC(=O)[C@H](CCCCN)NC2=O)[C@@H](C)CC)[C@@H](C)CC)NC(=O)[C@H](C(C)C)NC(=O)[C@@H]2CCCN2C1=O [Bib1β],did not show strong membrane depolarization activity,showed hemolytic activity,incapable of protecting lipid II,–,bactericidal,–,did not show pore formation activity,oligomeric in the presence of SDS,did not induce hemolysis,0.384,291,8,bimodal
